From patent US4239664A, “Anti-thrombogenic PVP-heparin polymer” (Research Corporation, priority 1978, dated 1980)

Columns and labels:
anticoagulant activity = experiment: Biological (anticoagulant) activity of heparin and PVP-heparins; type: biochemical; details: Table I; heparin 100
[1] = in vivo; cited from earlier work

Solubility in Water: 70 g/100 ml
Substance: Heparin
% Biological Activity (anticoagulant activity): 100%
dose dependence of half-life in man [1]: does not increase
half-life of heparin in man [1]: 1 - 11/2
